Test results published in US11124486B2, “6-membered heterocyclic derivatives and pharmaceutical composition comprising the same” (Shionogi & Co., Ltd., priority 2015, dated 2021).

These compounds were tested against human P2X7 receptor (Homo sapiens, UniProt Q99572, R270H/Y155H) (assay: Evaluation of a human P2X7 receptor inhibitory activity (Yo-Pro uptake, BzATP stimulation, FLIPR TETRA)). Conditions: 1321N1 cells expressing human P2X7 receptor; BzATP stimulation, Yo-Pro uptake; read-out: IC50 (antagonistic activity for the human P2X7 receptor).
Format: cell-based
Description: Test Example 1 Evaluation of a Human P2X7 Receptor Inhibitory Activity
Stably expressing cell line (1321N1 cell transfected with the human P2X7 receptor gene (GenBank accession number NM_002502.5 including T606C and G952A SNP)) was used. The cells were seeded in a 384-well microtiter plate at a concentration of 8000 cells/well and cultured in the medium (10% fetal bovine serum, 25 mM HEPES, 1% penicillin and streptomycin in DMEM) for one day at 37° C. under 5% carbon dioxide atmosphere. After replacing with 20 μL of the HBSS buffer (20 mM HEPES, 55.6 mM D-glucose, 1×HBSS(−), pH7.4-7.5). 16 μL of 17.3 μM Yo-Pro solution in the HBSS buffer was added. The plate was placed in high-throughput cellular screening system FLIPR TETRA (Molecullar Devices, LLC.) and 15 μL of 130 μM BzATP solution in the HBSS buffer was added. Measurement, of fluorescence intensity by FLIPR TETRA was started. After eight minutes, 15 μL of DMSO solutions containing different concentrations of the compound of the present invention as prepared by dilution with the HBSS buffer were dispensed to each well through the built-in automatic dispenser, and the measurement of fluorescence intensity was continued for 20 minutes. […] Changing values of fluorescence intensity by the compound of the present invention were calculated by difference between maximum and minimum fluorescence intensity for 20 minutes. Inhibition ratios (%) were calculated from the following equation:
[formula] IC50 was calculated using Logistic approximation.

SMILES	IC50 [µM]
COc1cn(Cc2ccc(F)c(Cl)c2)c(Nc2cc3sc(C)nc3cc2C)cc1=O [Compound I-0033]	0.049
COc1cn(Cc2ccc(F)c(Cl)c2)c(Oc2cc(C)c(C)cc2C)nc1=O [Compound I-0358]	0.16
COc1cn(Cc2cc(F)cc(F)c2)c(NCc2cccc(Cl)c2C)nc1=O [Compound I-0452]	0.11

Same assay, conditions: 1321N1 cells expressing human P2X7 receptor; BzATP stimulation, Yo-Pro uptake; read-out: IC50 (antagonistic activity for the human P2X7 receptor), class

SMILES	IC50 [µM]
Cc1c(Cl)cccc1Nc1nc(=O)c(OOC(C)(C)C)cn1Cc1ccccc1 [Compound I-0111]	0.1 to 0.5
COc1cn(Cc2ccccc2)c(Nc2cccc(C)c2Cl)nc1=O [Compound I-0112]	0.01 to 0.1
COc1cc(C)c(Nc2nc(=O)c(OC)cn2Cc2cccc(F)c2)cc1C [Compound I-0249]	< 0.01
COc1cn(Cc2ccccc2)c(Oc2cc(C)c(C)cc2C)nc1=O [Compound I-0357]	0.5 to 1
COc1cn(Cc2cccc(OC(F)F)c2)c(Nc2cccc(Cl)c2C)nc1=O [Compound I-0422]	0.5 to 1
COc1cc(C)c(Nc2nc(=O)c(OC)cn2Cc2cc(F)cc(Cl)c2)cc1C [Compound I-0446]	< 0.01
CCc1cc(OC)ccc1Nc1nc(=O)c(OC)cn1Cc1cc(F)cc(Cl)c1 [Compound I-0447]	< 0.01
COc1cn(Cc2ccccc2)c(Nc2cc(S(C)(=O)=O)c(C)cc2C)nc1=O [Compound I-0448]	0.01 to 0.1
COc1cn(Cc2ccc(F)c(Cl)c2)c(Nc2cc(S(C)(=O)=O)c(C)cc2C)nc1=O [Compound I-0449]	< 0.01
CCc1ccc(F)cc1Nc1nc(=O)c(OC)cn1Cc1ccccc1 [Compound I-0450]	0.01 to 0.1
CCOc1ccc(C)c(Nc2nc(=O)c(OC)cn2Cc2ccc(F)c(F)c2)c1 [Compound I-0457]	< 0.01
CCOc1ccc(C)c(Nc2nc(=O)c(OC)cn2Cc2cc(F)cc(F)c2)c1 [Compound I-0458]	0.01 to 0.1
CCOc1ccc(C)c(Nc2nc(=O)c(OC)cn2Cc2ccc(F)c(Cl)c2)c1 [Compound I-0459]	< 0.01
CCOc1ccc(C)c(Nc2nc(=O)c(OC)cn2Cc2cc(F)cc(Cl)c2)c1 [Compound I-0460]	0.01 to 0.1
COc1cn(Cc2ccc(F)c(F)c2)c(Nc2ccc(C)cc2C)nc1=O [Compound I-0461]	< 0.01
COc1cn(Cc2cc(F)cc(Cl)c2)c(Nc2ccc(C)cc2C)nc1=O [Compound I-0462]	0.01 to 0.1
COc1cn(Cc2cc(F)cc(F)c2)c(Nc2ccc(C)cc2C)nc1=O [Compound I-0463]	< 0.01
COc1cc(C)c(Nc2nc(=O)c(OC)cn2Cc2ccccc2)cc1Cl [Compound I-0464]	< 0.01
COc1cc(C)c(Nc2nc(=O)c(OC)cn2Cc2ccc(F)c(Cl)c2)cc1Cl [Compound I-0465]	< 0.01
COc1cn(Cc2cccc(Cl)c2)c(Nc2cccc(C(F)(F)F)c2C)nc1=O [Compound I-0466]	0.01 to 0.1
COc1cc(Nc2nc(=O)c(OC)cn2Cc2cccc(F)c2)c(C)cc1Cl [Compound I-0474]	< 0.01
COc1cc(Nc2nc(=O)c(OC)cn2Cc2ccc(F)cc2)c(C)cc1Cl [Compound I-0475]	< 0.01
COc1cccc(Nc2nc(=O)c(OC)cn2Cc2cccc(Cl)c2)c1C [Compound I-0476]	< 0.01
COc1cccc(Nc2nc(=O)c(OC)cn2Cc2ccc(F)c(F)c2)c1C [Compound I-0477]	< 0.01
COc1cccc(Nc2nc(=O)c(OC)cn2Cc2ccc(F)c(Cl)c2)c1C [Compound I-0478]	< 0.01
COc1cn(Cc2cc(F)cc(Cl)c2)c(Nc2cc(OCC(F)(F)F)ccc2C)nc1=O [Compound I-0498]	0.1 to 0.5

Same assay, conditions: antagonistic activity for the human P2X7 receptor; 1321N1 cells expressing human P2X7, BzATP-stimulated Yo-Pro uptake; read-out: IC50

SMILES	IC50 [µM]
COc1cn(Cc2cc(F)c(F)c(F)c2)c(Cc2cccc3[nH]c(=O)ccc23)nc1=O [Compound I-0602]	0.1 to 0.5
COC1CN(Cc2ccc(F)c(F)c2)C(Nc2cc(S(C)(=O)=O)c(C)cc2C)=NC1=O (stereo not drawn) [Compound I-0605]	0.01 to 0.1
COc1cn(Cc2ccccc2)c(Nc2ccc(C)cc2F)nc1=O [Compound I-0762]	0.1 to 0.5
COc1cn(Cc2ccc(F)c(Cl)c2)c(Nc2c(C)cc3c(c2C)COC3)nc1=O [Compound I-0907]	< 0.01
COc1cc(C)c(Nc2nc(=O)cc(C)n2Cc2cc(F)c(F)c(F)c2)cc1OC [Compound I-1153]	< 0.01
COc1ccc(NC2=NC(=O)CC(C)N2Cc2cc(F)c(F)c(F)c2)c(C)c1 (stereo not drawn) [Compound I-1167]	< 0.01
Cc1cc(F)c(-c2cccn(C)c2=O)cc1Nc1nc(=O)c(F)cn1Cc1cc(F)c(F)c(F)c1 [Compound I-1222]	< 0.01
